What all share (assay type): biochemical
One assay deals with T1, JAK1 (Homo sapiens, UniProt P23458).
T1 construct: purchased Carna Biosciences
As to the kind of experiment: JAK1 microfluidic kinase assay (Caliper EZ Reader II, FAM labeled peptide substrate). The conditions noted are these: IC50 JAK1 (5 nM) (1 m MATP), JAK1 5 nM, 1 mM ATP. Summed up:
(§1)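 3-fold serial dilutions, top 5 μM, 1% DMSO final; 10 min preincubation with enzyme, RT. Buffer: 50 mM HEPES, 0.01% Brij35, 10 mM MgCl2, 2 mM DTT. Enzyme batch tuned to 10% peptide conversion. EDTA stop, mobility-shift readout, IC50 fit.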

The target of another assay is T2, JAK2 (Homo sapiens, UniProt O60674).
T2 construct: purchased Carna Biosciences
The assay can be described thus: JAK2 microfluidic kinase assay (Caliper EZ Reader II, FAM labeled peptide substrate). The method, boiled down: as §1

For the next assay, the target named is T3, TYK2 (Homo sapiens, UniProt P29597).
T3 construct: purchased Carna Biosciences
The assay can be described thus: TYK2 microfluidic kinase assay (Caliper EZ Reader II, FAM labeled peptide substrate). How it is done: Compounds were tested against JAK1, JAK2, JAK2V617F and TYK2. Assay Formats: JAK activity was determined in the reaction buffer 50 mM HEPES, 0.01% Brij35, 10 mM MgCl2, 2 mM DTT by a microfluidic assay. The phosphorylation of a FAM labeled peptide substrate was monitored in the Caliper EZ Reader II (Perkin Elmer). The assay condition for each batch of enzyme (Carna Biosciences) was optimized to obtain 10% conversion rate of peptide substrate. The test compounds were dissolved in DMSO to a stock concentration of 10 mM. 3-fold serially diluted compounds with top concentration of 5 μM were pre-incubated with JAK1, JAK2, JAK2V617F or TYK2 at indicated concentrations for 10 min at ambient temperature. The final DMSO concentration of assay mixture was 1%. […] The reaction was stopped by adding 50 mM EDTA. The reaction time for JAK1, JAK2, JAK2V617F and TYK2 was 120 min, 20 min, 30 min and 10 min, respectively. […] And the well without compound but with equivalent DMSO was defined as no inhibition. The percent inhibition was calculated by the following formula. % Inhibition=(Conversionmax−Conversionsample)/(Conversionmax−Conversionmin)*100 • Conversionmax means the conversion rate in the positive well without addition of compound • Conversionmin means the conversion rate in the well without addition of enzyme • Conversionsample means the conversion rate of test compounds The dose-response (percent inhibition) curve was plotted and IC50 values were determined by GraphPad software.

Where [1] appears, read: IC50 JAK2 ([…]) (1 mM ATP), 1 mM ATP.
The mark [2] stands for this setting: IC50 TYK2 ([…]) (1 mM ATP), TYK2 […], 1 mM ATP.

Some results are limits rather than exact numbers.

T1 sequence (P23458 whole entry): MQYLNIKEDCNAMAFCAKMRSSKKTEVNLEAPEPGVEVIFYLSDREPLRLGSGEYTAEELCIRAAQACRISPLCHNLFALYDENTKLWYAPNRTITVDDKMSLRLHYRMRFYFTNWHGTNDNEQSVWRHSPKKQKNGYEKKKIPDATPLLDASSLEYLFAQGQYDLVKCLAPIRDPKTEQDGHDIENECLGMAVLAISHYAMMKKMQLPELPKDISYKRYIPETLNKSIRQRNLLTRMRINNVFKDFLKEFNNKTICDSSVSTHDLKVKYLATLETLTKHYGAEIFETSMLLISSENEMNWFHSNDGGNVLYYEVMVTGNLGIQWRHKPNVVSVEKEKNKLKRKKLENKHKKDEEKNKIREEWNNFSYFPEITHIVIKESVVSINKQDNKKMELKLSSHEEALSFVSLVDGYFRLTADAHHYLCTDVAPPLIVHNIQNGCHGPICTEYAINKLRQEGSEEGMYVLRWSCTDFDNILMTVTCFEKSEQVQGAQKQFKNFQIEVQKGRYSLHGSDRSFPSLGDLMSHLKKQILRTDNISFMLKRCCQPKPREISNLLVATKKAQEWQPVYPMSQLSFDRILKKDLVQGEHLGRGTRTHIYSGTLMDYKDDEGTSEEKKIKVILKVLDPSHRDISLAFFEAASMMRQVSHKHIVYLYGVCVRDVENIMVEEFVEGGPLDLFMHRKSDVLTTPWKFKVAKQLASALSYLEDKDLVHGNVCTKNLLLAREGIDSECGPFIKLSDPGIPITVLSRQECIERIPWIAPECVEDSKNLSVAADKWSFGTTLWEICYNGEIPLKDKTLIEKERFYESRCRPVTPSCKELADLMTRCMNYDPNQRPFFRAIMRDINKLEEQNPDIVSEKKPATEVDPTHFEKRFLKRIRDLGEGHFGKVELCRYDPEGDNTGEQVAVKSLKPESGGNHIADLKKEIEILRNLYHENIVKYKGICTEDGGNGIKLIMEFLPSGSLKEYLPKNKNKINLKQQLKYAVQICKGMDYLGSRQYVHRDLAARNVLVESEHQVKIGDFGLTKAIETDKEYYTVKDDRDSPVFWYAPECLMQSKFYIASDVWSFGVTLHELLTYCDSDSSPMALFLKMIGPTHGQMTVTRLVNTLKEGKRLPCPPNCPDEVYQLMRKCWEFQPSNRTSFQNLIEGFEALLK
T3 sequence (P29597 whole entry): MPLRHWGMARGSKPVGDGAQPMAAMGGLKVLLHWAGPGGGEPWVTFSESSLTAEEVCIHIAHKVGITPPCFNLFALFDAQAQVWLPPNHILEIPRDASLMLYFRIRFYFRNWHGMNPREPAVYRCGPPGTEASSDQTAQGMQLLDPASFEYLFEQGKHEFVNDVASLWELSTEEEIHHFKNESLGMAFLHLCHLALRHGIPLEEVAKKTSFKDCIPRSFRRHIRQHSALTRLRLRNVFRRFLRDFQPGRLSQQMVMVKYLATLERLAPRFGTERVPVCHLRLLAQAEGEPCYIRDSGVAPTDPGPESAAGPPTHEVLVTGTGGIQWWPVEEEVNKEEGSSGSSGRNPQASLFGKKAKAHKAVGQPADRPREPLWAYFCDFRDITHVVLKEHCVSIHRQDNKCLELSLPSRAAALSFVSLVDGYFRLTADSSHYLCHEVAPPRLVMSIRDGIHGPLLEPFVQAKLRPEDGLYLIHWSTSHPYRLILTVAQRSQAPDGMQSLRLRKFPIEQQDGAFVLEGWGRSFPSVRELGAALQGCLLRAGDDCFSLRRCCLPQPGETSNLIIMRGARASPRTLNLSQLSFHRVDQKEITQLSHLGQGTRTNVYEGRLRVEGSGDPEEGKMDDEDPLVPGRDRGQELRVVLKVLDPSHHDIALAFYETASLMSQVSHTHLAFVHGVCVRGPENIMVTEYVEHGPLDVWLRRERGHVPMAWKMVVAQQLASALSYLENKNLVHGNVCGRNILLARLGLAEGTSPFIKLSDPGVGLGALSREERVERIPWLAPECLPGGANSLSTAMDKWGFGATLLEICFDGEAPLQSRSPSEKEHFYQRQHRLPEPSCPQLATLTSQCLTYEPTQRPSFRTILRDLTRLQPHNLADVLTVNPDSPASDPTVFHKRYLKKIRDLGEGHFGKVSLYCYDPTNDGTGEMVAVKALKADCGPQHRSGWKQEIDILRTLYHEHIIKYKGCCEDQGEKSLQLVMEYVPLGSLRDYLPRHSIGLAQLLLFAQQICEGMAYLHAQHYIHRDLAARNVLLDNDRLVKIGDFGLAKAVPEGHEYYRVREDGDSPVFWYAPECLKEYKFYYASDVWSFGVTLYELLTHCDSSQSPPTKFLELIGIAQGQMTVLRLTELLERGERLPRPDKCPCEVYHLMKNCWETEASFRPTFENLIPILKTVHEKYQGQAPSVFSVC
T2 sequence (O60674 whole entry): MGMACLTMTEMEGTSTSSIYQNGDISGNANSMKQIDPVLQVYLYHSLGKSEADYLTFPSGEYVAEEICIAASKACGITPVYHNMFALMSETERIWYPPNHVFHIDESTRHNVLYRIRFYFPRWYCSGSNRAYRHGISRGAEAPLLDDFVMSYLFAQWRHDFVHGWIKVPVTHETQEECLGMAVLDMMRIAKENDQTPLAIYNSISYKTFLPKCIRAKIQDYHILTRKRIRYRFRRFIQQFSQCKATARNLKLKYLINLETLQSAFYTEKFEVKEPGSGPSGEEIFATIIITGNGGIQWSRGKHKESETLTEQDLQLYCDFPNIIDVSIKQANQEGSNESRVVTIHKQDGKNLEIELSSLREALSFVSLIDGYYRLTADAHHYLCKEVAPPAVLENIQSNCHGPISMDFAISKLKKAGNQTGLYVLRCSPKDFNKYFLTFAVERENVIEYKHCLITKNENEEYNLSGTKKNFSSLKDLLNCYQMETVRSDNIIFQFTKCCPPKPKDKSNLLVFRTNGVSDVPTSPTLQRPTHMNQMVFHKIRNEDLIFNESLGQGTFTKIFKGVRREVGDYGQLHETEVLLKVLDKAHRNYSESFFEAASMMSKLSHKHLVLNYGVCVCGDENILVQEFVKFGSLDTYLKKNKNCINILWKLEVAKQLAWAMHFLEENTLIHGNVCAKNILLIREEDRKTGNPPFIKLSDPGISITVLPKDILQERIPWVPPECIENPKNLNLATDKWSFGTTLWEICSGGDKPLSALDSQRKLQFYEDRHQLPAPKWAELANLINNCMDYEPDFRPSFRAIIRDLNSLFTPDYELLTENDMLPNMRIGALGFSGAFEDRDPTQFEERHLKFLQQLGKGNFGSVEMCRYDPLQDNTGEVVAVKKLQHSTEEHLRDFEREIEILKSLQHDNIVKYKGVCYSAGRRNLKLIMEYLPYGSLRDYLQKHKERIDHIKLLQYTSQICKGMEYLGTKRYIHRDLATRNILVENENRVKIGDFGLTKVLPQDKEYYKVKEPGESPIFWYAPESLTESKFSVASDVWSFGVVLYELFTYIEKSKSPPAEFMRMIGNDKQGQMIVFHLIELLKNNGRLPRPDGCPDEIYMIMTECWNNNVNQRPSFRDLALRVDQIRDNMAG

For `CC[C@@H](C#N)NC(=O)c1ccc(-c2nc(Nc3cnn(C(C)C(F)(F)F)c3)ncc2C)cc1` (single isomer, unassigned) [Example 225, N—((S)-1-Cyanopropyl)-4-(5-methyl-2-((1-((R*)-1,1,1-trifluoropropan-2-yl)-1H-pyrazol-4-yl)amino)pyrimidin-4-yl)benzamide], the 50% inhibitory concentration (IC50) is 8.95 nM at JAK1, 42.6 nM at JAK2 (setting [1]) and 66.9 nM at TYK2 (setting [2]).
Taken in the same sequence, the figures for `CC[C@@H](C#N)NC(=O)c1ccc(-c2nc(Nc3cnn(C(C)C(F)(F)F)c3)ncc2C)cc1` (single isomer, unassigned) [Example 226, N—((S)-1-Cyanopropyl)-4-(5-methyl-2-((1-((S*)-1,1,1-trifluoropropan-2-yl)-1H-pyrazol-4-yl)amino)pyrimidin-4-yl)benzamide] were 4.24 nM, 32.2 nM and 57.3 nM.
The matching figures for `N#CCNC(=O)c1ccc(-c2nc(Nc3cnn(CC#N)c3)ncc2Cl)cc1` [Example 41, 4-(5-Chloro-2-((1-(cyanomethyl)-1H-pyrazol-4-yl)amino)pyrimidin-4-yl)-N-(cyanomethyl)benzamide]: 6.45 nM, 31.8 nM and 71.2 nM.
The matching figures for `N#CCNC(=O)c1ccc(-c2nc(Nc3cnn(CC#N)c3)ncc2F)cc1` [Example 45, N-(cyanomethyl)-4-(2-((1-(cyanomethyl)-1H-pyrazol-4-yl)amino)-5-fluoropyrimidin-4-yl)benzamide]: 59.6 nM, 256 nM and 251 nM.
On to `C[C@@H](C#N)NC(=O)c1ccc(-c2nc(Nc3cnn(CC(N)=O)c3)ncc2Cl)cc1` [Example 47, (S)-4-(2-((1-(2-amino-2-oxoethyl)-1H-pyrazol-4-yl)amino)-5-chloropyrimidin-4-yl)-N-(1-cyanoethyl)benzamide], for which the results for the IC50 against JAK1, against JAK2 (setting [1]) and on TYK2 (setting [2]) were 5.67 nM, 36.6 nM and 50.6 nM, respectively.
Taken in the same sequence, the figures for `Cc1cnc(Nc2cnn(CC#N)c2)nc1-c1ccc(C(=O)N[C@H](C)C#N)cc1` [Example 54, (R)—N-(1-cyanoethyl)-4-(2-((1-(cyanomethyl)-1H-pyrazol-4-yl)amino)-5-methylpyrimidin-4-yl)benzamide] were 34.3 nM, 210 nM and 304 nM.
As for `C[C@H](C#N)NC(=O)c1ccc(-c2nc(Nc3cnn(C4CCN(C)CC4)c3)ncc2Cl)cc1` [Example 58, (R)-4-(5-Chloro-2-((1-(1-methylpiperidin-4-yl)-1H-pyrazol-4-yl)amino)pyrimidin-4-yl)-N-(1-cyanoethyl)benzamide], the IC50 is 34.8 nM at JAK1, 42.2 nM against JAK2 (setting [1]) and 272 nM at TYK2 (setting [2]).
`Cc1cnc(Nc2ccn(C)n2)nc1-c1ccc(C(=O)NCC#N)cc1` [Example 107, N-(Cyanomethyl)-4-(5-methyl-2-((1-methyl-1H-pyrazol-3-yl)amino)pyrimidin-4-yl)benzamide]: the IC50 is 2310 nM against JAK1; 1150 nM against JAK2 (setting [1]); 28.1 nM against JAK2 (IC50 JAK2 ([…]) (Km ATP), Km ATP); greater than 5000 nM at TYK2 (setting [2]).
Take `Cc1cnc(Nc2cnn(C3CC3)c2)nc1-c1ccc(C(=O)N(C)CC#N)cc1` [Example 108, N-(cyanomethyl)-4-(2-((1-cyclopropyl-1H-pyrazol-4-yl)amino)-5-methylpyrimidin-4-yl)-N-methylbenzamide]: the half-maximal inhibitory concentration (IC50) was 628 nM on JAK1, 461 nM against JAK2 (setting [1]) and 1150 nM against TYK2 (setting [2]).
For `N#CC1CN(C(=O)c2ccc(-c3nc(Nc4cnn(C5CC5)c4)ncc3C(F)F)cc2F)C1` [Example 126, 1-(4-(2-((1-Cyclopropyl-1H-pyrazol-4-yl)amino)-5-(difluoromethyl)pyrimidin-4-yl)-2-fluorobenzoyl)azetidine-3-carbonitrile], half-maximal inhibition on TYK2 (IC50 TYK2 (10 nM) (Km ATP), TYK2 10 nM, Km ATP) (IC50) was put at 1770 nM. This lies in the single-digit micromolar range.
For `Cc1cnc(Nc2cnn(C3CCNCC3)c2)nc1-c1ccc(C(=O)N[C@H](C#N)C2CC2)cc1` [Example 156, (S)—N-(cyano(cyclopropyl)methyl)-4-(5-methyl-2-((1-(piperidin-4-yl)-1H-pyrazol-4-yl)amino)pyrimidin-4-yl)benzamide], the IC50 on JAK1 came out at 2.93 nM; on JAK2 (setting [1]), 0.79 nM; against TYK2 (setting [2]), 3.15 nM.
In the case of `Cc1cnc(Nc2cnn(C3CCNCC3)c2)nc1-c1ccc(C(=O)N[C@@H](C)C#N)cc1` [Example 170, (S)—N-(1-Cyanoethyl)-4-(5-methyl-2-((1-(piperidin-4-yl)-1H-pyrazol-4-yl)amino)pyrimidin-4-yl)benzamide], the half-maximal inhibitory concentration (IC50) on JAK1 is 6.66 nM; at JAK2 (setting [1]) it was 0.78 nM; at TYK2 (setting [2]) it was 1.04 nM.
Taken in the same sequence, the figures for `CC[C@@H](C#N)NC(=O)c1ccc(-c2nc(Nc3cnn(C4CCNCC4)c3)ncc2C)cc1` [Example 171, (S)—N-(1-Cyanopropyl)-4-(5-methyl-2-((1-(piperidin-4-yl)-1H-pyrazol-4-yl)amino)pyrimidin-4-yl)benzamide] were 1.84 nM, 0.78 nM and 0.88 nM.
Taken in the same sequence, the figures for `CCC[C@@H](C#N)NC(=O)c1ccc(-c2nc(Nc3cnn(C4CCNCC4)c3)ncc2C)cc1` [Example 175, (S)—N-(1-Cyanobutyl)-4-(5-methyl-2-((1-(piperidin-4-yl)-1H-pyrazol-4-yl)amino)pyrimidin-4-yl)benzamide] were 1.48 nM, 0.51 nM and 2.22 nM.
The matching figures for `CCC[C@@H](C#N)NC(=O)c1ccc(-c2nc(Nc3cnn(C4CCN(C)CC4)c3)ncc2C)cc1` [Example 176, (S)—N-(1-cyanobutyl)-4-(5-methyl-2-((1-(1-methylpiperidin-4-yl)-1H-pyrazol-4-yl)amino)pyrimidin-4-yl)benzamide]: 1.35 nM, 0.85 nM and 1.1 nM.
Consider `CC[C@@H](C#N)NC(=O)c1ccc(-c2nc(Nc3cnn(C4CC(C)(C)OC(C)(C)C4)c3)ncc2C)cc1` [Example 179, (S)—N-(1-cyanopropyl)-4-(5-methyl-2-((1-(2,2,6,6-tetramethyltetrahydro-2H-pyran-4-yl)-1H-pyrazol-4-yl)amino)pyrimidin-4-yl)benzamide], for which the IC50 against JAK1 is 6.03 nM; at JAK2 (setting [1]) it was 0.43 nM; at TYK2 (setting [2]), less than 0.25 nM.
The matching figures for `C[C@@H](C#N)NC(=O)c1ccc(-c2nc(Nc3cnn(CCO)c3)ncc2Cl)cc1` [Example 186, (S)-4-(5-chloro-2-((1-(2-hydroxyethyl)-1H-pyrazol-4-yl)amino)pyrimidin-4-yl)-N-(1-cyanoethyl)benzamide]: 2.47 nM, 25.2 nM and 39.7 nM.
Taken in the same sequence, the figures for `C[C@@H](C#N)NC(=O)c1ccc(-c2nc(Nc3cn[nH]c3)ncc2Cl)cc1` [Example 188, (S)-4-(2-((1H-pyrazol-4-yl)amino)-5-chloropyrimidin-4-yl)-N-(1-cyanoethyl)benzamide] were 2.9 nM, 18.3 nM and 20.4 nM.
The matching figures for `C[C@@H](C#N)NC(=O)c1ccc(-c2nc(Nc3cnn(CCC#N)c3)ncc2Cl)cc1` [Example 189, (S)-4-(5-Chloro-2-((1-(2-cyanoethyl)-1H-pyrazol-4-yl)amino)pyrimidin-4-yl)-N-(1-cyanoethyl)benzamide]: 4.02 nM, 44 nM and 85 nM.
As to `CC[C@@H](C#N)NC(=O)c1ccc(-c2nc(Nc3cnn(CCC#N)c3)ncc2Cl)cc1` [Example 190, (S)-4-(5-chloro-2-((1-(2-cyanoethyl)-1H-pyrazol-4-yl)amino)pyrimidin-4-yl)-N-(1-cyanopropyl)benzamide], the values for the 50% inhibitory concentration (IC50) on JAK1, against JAK2 (setting [1]) and at TYK2 (setting [2]) were 3.83 nM, 22.1 nM and 45 nM, respectively.
Taken in the same sequence, the figures for `Cc1cnc(Nc2cnn(CCO)c2)nc1-c1ccc(C(=O)N[C@H](C#N)C(C)C)cc1` [Example 191, (S)—N-(1-cyano-2-methylpropyl)-4-(2-((1-(2-hydroxyethyl)-1H-pyrazol-4-yl)amino)-5-methylpyrimidin-4-yl)benzamide] were 1.63 nM, 41.3 nM and 53.9 nM.
As to `Cc1cnc(Nc2cn[nH]c2)nc1-c1ccc(C(=O)N[C@@H](C)C#N)cc1` [Example 199, (S)-4-(2-((1H-Pyrazol-4-yl)amino)-5-methylpyrimidin-4-yl)-N-(1-cyanoethyl)benzamide], the values for the IC50 on JAK2 (setting [1]) and against TYK2 (setting [2]) were 30.8 nM and 30.2 nM, respectively.

One may read the IC50 as the concentration that inhibits the measured activity by half. Lower therefore signals higher potency.

The record behind these values is US12595253B2, “Benzamides of pyrazolylamino-pyrimidinyl derivatives, and compositions and methods thereof” (LYNK PHARMACEUTICALS CO. LTD., priority 2019, dated 2026).
